Reference: patent US11173162B2, “Bicyclic heterocycles as FGFR4 inhibitors” (Incyte Corporation, priority 2015, dated 2021)

System: FGFR3 enzyme
Assay: FGFR Enzymatic Assay (FRET peptide phosphorylation), FGFR3
Type: biochemical
Settings: IC50 ratio showing FGFR3 selectivity; Table 2A, pre-incubated for 4 hours
Procedure: (§1) The inhibitor potency of the exemplified compounds was measured in an enzyme assay that measures peptide phosphorylation using FRET measurements to detect product formation. Inhibitors were serially diluted in DMSO and a volume of 0.5 μL was transferred to the wells of a 384-well plate.
(§2) GraphPad prism3 was used to analyze the data.

| SMILES | FGFR1/FGFR3 | FGFR4/FGFR3 |
| --- | --- | --- |
| COc1cc(OC)c(F)c(N2Cc3cnc(-c4ccc(C5(C#N)CCC5)nc4)cc3N(c3cnn(C)c3)C2=O)c1F [Example 188, 1-{5-[3-(2,6-difluoro-3,5-dimethoxyphenyl)-1-(1-methyl-1H-pyrazol-4-yl)-2-oxo-1,2,3,4-tetrahydropyrido[4,3-d]pyrimidin-7-yl]pyridin-2-yl}cyclobutanecarbonitrile] | >5 | >5 |
| COc1cc(OC)c(F)c(N2Cc3cnc(-c4cn(C)nc4C)cc3N(c3cnccn3)C2=O)c1F [Example 70, 3-(2,6-difluoro-3,5-dimethoxyphenyl)-7-(1,3-dimethyl-1H-pyrazol-4-yl)-1-(pyrazin-2-yl)-3,4-dihydropyrido[4,3-d]pyrimidin-2(1H)-one] | >5 | >5 |
| COc1cc(OC)c(F)c(N2Cc3cnc(-c4ccc(C5(C#N)CCC5)nc4)cc3N(Cc3nnc(C)o3)C2=O)c1F [Example 187, 1-(5-{3-(2,6-difluoro-3,5-dimethoxyphenyl)-1-[(5-methyl-1,3,4-oxadiazol-2-yl)methyl]-2-oxo-1,2,3,4-tetrahydropyrido[4,3-d]pyrimidin-7-yl}pyridin-2-yl)cyclobutanecarbonitrile] | >10 | >10 |
| COc1cc(OC)c(F)c(N2Cc3cnc(-c4cn(C)nc4C)cc3N(c3cccc(-c4cnnn4C)c3)C2=O)c1F [Example 89, 3-(2,6-difluoro-3,5-dimethoxyphenyl)-7-(1,3-dimethyl-1H-pyrazol-4-yl)-1-(3-(1-methyl-1H-1,2,3-triazol-5-yl)phenyl)-3,4-dihydropyrido[4,3-d]pyrimidin-2(1H)-one] | >5 | >10 |
| COc1cc(OC)c(F)c(N2Cc3cnc(-c4cn(C)nc4C)cc3N(Cc3cccnn3)C2=O)c1F [Example 88, 3-(2,6-difluoro-3,5-dimethoxyphenyl)-7-(1,3-dimethyl-1H-pyrazol-4-yl)-1-(pyridazin-3-ylmethyl)-3,4-dihydropyrido[4,3-d]pyrimidin-2(1H)-one] | >5 | >10 |
| COc1cc(OC)c(F)c(N2Cc3cnc(-c4cn(C)nc4C)cc3N(CCc3cnn(C)c3)C2=O)c1F [Example 114, 3-(2,6-difluoro-3,5-dimethoxyphenyl)-7-(1,3-dimethyl-1H-pyrazol-4-yl)-1-(2-(1-methyl-1H-pyrazol-4-yl)ethyl)-3,4-dihydropyrido[4,3-d]pyrimidin-2(1H)-one] | >3 | >5 |
| COc1cc(OC)c(F)c(N2Cc3cnc(-c4cn(C)nc4C)cc3N(Cc3ccncc3)C2=O)c1F [Example 69, 3-(2,6-difluoro-3,5-dimethoxyphenyl)-7-(1,3-dimethyl-1H-pyrazol-4-yl)-1-(pyridin-4-ylmethyl)-3,4-dihydropyrido[4,3-d]pyrimidin-2(1H)-one] | >5 | >5 |
| COc1cc(OC)c(F)c(N2Cc3cnc(-c4cnn(CCC5CCN(S(C)(=O)=O)CC5)c4)cc3C3(CC3)C2=O)c1F [Example 148, 2′-(2,6-difluoro-3,5-dimethoxyphenyl)-6′-(1-(2-(1-(methylsulfonyl)piperidin-4-yl)ethyl)-1H-pyrazol-4-yl)-1′H-spiro[cyclopropane-1,4′-[2,7]naphthyridin]-3′(2′H)-one] | >10 | >3 |
| CCc1cnc(N2C(=O)N(c3c(F)c(OC)cc(OC)c3F)Cc3cnc(-c4cn(C)nc4C)cc32)cn1 [Example 106, 3-(2,6-difluoro-3,5-dimethoxyphenyl)-7-(1,3-dimethyl-1H-pyrazol-4-yl)-1-(5-ethylpyrazin-2-yl)-3,4-dihydropyrido[4,3-d]pyrimidin-2(1H)-one] | >3 | >5 |
| COc1cc(OC)c(F)c(N2Cc3cnc(-c4cn(C)nc4C)cc3N(Cc3ccncn3)C2=O)c1F [Example 65, 3-(2,6-difluoro-3,5-dimethoxyphenyl)-7-(1,3-dimethyl-1H-pyrazol-4-yl)-1-(pyrimidin-4-ylmethyl)-3,4-dihydropyrido[4,3-d]pyrimidin-2(1H)-one] | >5 | >10 |
| COc1cc(OC)c(F)c(N2Cc3cnc(-c4cnn(C)c4)cc3C3(CC3)C2=O)c1F [Example 186, 2′-(2,6-difluoro-3,5-dimethoxyphenyl)-6′-(1-methyl-1H-pyrazol-4-yl)-1′,2′-dihydro-3′H-spiro[cyclopropane-1,4′-[2,7]naphthyridin]-3′-one] | >5 | >5 |
| COc1cc(OC)c(F)c(N2Cc3cnc(-c4cn(C)nc4C)cc3N(c3cccc(F)c3)C2=O)c1F [Example 99, 3-(2,6-difluoro-3,5-dimethoxyphenyl)-7-(1,3-dimethyl-1H-pyrazol-4-yl)-1-(3-fluorophenyl)-3,4-dihydropyrido[4,3-d]pyrimidin-2(1H)-one] | >5 | >5 |
| COc1cc(OC)c(F)c(N2Cc3cnc(-c4cn(C)nc4C)cc3N(Cc3cnn(C)c3)C2=O)c1F [Example 72, 3-(2,6-difluoro-3,5-dimethoxyphenyl)-7-(1,3-dimethyl-1H-pyrazol-4-yl)-1-((1-methyl-1H-pyrazol-4-yl)methyl)-3,4-dihydropyrido[4,3-d]pyrimidin-2(1H)-one] | >5 | >10 |
| COc1cc(OC)c(F)c(N2Cc3cnc(-c4cn(CCCN5CCOCC5)nc4C)cc3C3(CC3)C2=O)c1F [Example 146, 2′-(2,6-difluoro-3,5-dimethoxyphenyl)-6′-(3-methyl-1-(3-morpholinopropyl)-1H-pyrazol-4-yl)-1′H-spiro[cyclopropane-1,4′-[2,7]naphthyridin]-3′(2′H)-one] | >10 | >5 |
| COc1cc(OC)c(F)c(N2Cc3cnc(-c4cn(C)nc4C)cc3N(C3(C#N)CC3)C2=O)c1F [Example 91, 1-(3-(2,6-difluoro-3,5-dimethoxyphenyl)-7-(1,3-dimethyl-1H-pyrazol-4-yl)-2-oxo-3,4-dihydropyrido[4,3-d]pyrimidin-1(2H)-yl)cyclopropanecarbonitrile] | >5 | >5 |
| CCN1C(=O)N(c2c(F)c(OC)cc(OC)c2F)Cc2cnc(-c3ccc(C(=O)NC(C)C)nc3)cc21 [Example 178, 5-(3-(2,6-difluoro-3,5-dimethoxyphenyl)-1-ethyl-2-oxo-1,2,3,4-tetrahydropyrido[4,3-d]pyrimidin-7-yl)-N-isopropylpicolinamide] | >5 | >5 |
| CCN1C(=O)N(c2c(F)c(OC)cc(OC)c2F)Cc2cnc(-c3ccc(C(C)(C)C#N)nc3)cc21 [Example 26, 2-(5-(3-(2,6-difluoro-3,5-dimethoxyphenyl)-1-ethyl-2-oxo-1,2,3,4-tetrahydropyrido[4,3-d]pyrimidin-7-yl)pyridin-2-yl)-2-methylpropanenitrile] | >5 | >5 |
| COc1cc(OC)c(F)c(N2Cc3cnc(-c4cn(C)nc4C)cc3N(C(C)C)C2=O)c1F [Example 90, 3-(2,6-difluoro-3,5-dimethoxyphenyl)-7-(1,3-dimethyl-1H-pyrazol-4-yl)-1-isopropyl-3,4-dihydropyrido[4,3-d]pyrimidin-2(1H)-one] | >5 | >5 |
| COc1cc(OC)c(F)c(N2Cc3cnc(-c4cn(C)nc4C)cc3N(c3ccc(F)c(C#N)c3)C2=O)c1F [Example 66, 5-(3-(2,6-difluoro-3,5-dimethoxyphenyl)-7-(1,3-dimethyl-1H-pyrazol-4-yl)-2-oxo-3,4-dihydropyrido[4,3-d]pyrimidin-1(2H)-yl)-2-fluorobenzonitrile] | >5 | >5 |
| COc1cc(OC)c(F)c(N2Cc3cnc(-c4cn(C)nc4C)cc3N(Cc3cncnc3)C2=O)c1F [Example 84, 3-(2,6-difluoro-3,5-dimethoxyphenyl)-7-(1,3-dimethyl-1H-pyrazol-4-yl)-1-(pyrimidin-5-ylmethyl)-3,4-dihydropyrido[4,3-d]pyrimidin-2(1H)-one] | >5 | >5 |
| COc1cc(OC)c(F)c(N2Cc3cnc(-c4cn(C)nc4C)cc3N(c3ccc(S(C)(=O)=O)cc3)C2=O)c1F [Example 98, 3-(2,6-difluoro-3,5-dimethoxyphenyl)-7-(1,3-dimethyl-1H-pyrazol-4-yl)-1-(4-(methylsulfonyl)phenyl)-3,4-dihydropyrido[4,3-d]pyrimidin-2(1H)-one] | >5 | >10 |
| CCn1cc(N2C(=O)N(c3c(F)c(OC)cc(OC)c3F)Cc3cnc(-c4cn(C)nc4C)cc32)cn1 [Example 131, 3-(2,6-difluoro-3,5-dimethoxyphenyl)-7-(1,3-dimethyl-1H-pyrazol-4-yl)-1-(1-ethyl-1H-pyrazol-4-yl)-3,4-dihydropyrido[4,3-d]pyrimidin-2(1H)-one] | >3 | >10 |
| CCN1C(=O)N(c2c(F)c(OC)cc(OC)c2F)Cc2cnc(-c3ccccc3)cc21 [Example 22, 3-(2,6-difluoro-3,5-dimethoxyphenyl)-1-ethyl-7-phenyl-3,4-dihydropyrido[4,3-d]pyrimidin-2(1H)-one] | >5 |  |

Target: FGFR4 (Homo sapiens (Human), UniProt P22455)
Assay: FGFR Enzymatic Assay (FRET peptide phosphorylation), FGFR4
Type: biochemical
Settings: IC50 ratio showing FGFR4 selectivity; Table 2, pre-incubated for 4 hours
Procedure: as §1
The enzymes were purchased from Millipore or Invitrogen.
as §2

Chain of FGFR4 (P22455 22-802): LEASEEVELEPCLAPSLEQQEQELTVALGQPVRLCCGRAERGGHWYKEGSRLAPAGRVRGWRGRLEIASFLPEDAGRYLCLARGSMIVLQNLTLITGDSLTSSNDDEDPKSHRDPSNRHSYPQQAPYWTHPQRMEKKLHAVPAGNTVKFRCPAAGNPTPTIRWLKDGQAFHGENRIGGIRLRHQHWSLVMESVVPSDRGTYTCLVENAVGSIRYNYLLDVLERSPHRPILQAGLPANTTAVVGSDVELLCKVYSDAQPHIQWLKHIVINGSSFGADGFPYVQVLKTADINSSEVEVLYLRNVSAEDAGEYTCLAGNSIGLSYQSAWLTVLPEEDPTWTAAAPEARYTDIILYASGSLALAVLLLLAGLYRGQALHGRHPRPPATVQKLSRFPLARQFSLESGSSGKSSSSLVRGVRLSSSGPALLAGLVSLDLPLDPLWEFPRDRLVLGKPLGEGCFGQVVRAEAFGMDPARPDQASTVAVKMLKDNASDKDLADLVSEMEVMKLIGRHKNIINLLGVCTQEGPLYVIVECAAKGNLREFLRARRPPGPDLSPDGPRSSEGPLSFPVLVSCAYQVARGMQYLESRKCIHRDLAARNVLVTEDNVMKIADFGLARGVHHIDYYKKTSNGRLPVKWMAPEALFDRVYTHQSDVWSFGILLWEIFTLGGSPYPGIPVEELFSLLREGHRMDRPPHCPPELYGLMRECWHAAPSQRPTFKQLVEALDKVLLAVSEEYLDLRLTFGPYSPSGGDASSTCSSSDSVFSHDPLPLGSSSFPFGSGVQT

| SMILES | FGFR1/FGFR4 | FGFR2/FGFR4 | FGFR3/FGFR4 |
| --- | --- | --- | --- |
| COc1cc(OC)c(F)c(N2Cc3cnc(-c4nn(C)cc4C#N)cc3C3(CC3)C2=O)c1F [Example 172, 3-(2′-(2,6-difluoro-3,5-dimethoxyphenyl)-3′-oxo-2′,3′-dihydro-1′H-spiro[cyclopropane-1,4′-[2,7]naphthyridine]-6′-yl)-1-methyl-1H-pyrazole-4-carbonitrile] | >50 | >25 | >10 |
| COc1cc(OC)c(F)c(N2Cc3cnc(-c4cc(N)ccc4C)cc3C3(CC3)C2=O)c1F [Example 1, 6′-(5-amino-2-methylphenyl)-2′-(2,6-difluoro-3,5-dimethoxyphenyl)-1^1H-spiro[cyclopropane-1,4′-[2,7]naphthyridin]-3′(2′H)-one] | >25 | >25 | >25 |

Same assay, conditions: ratio of IC50 data showing FGFR4 selectivity; Table 4, pre-incubated for 5 to 10 minutes

| SMILES | FGFR1/FGFR4 | FGFR2/FGFR4 | FGFR3/FGFR4 |
| --- | --- | --- | --- |
| COc1cc(OC)c(F)c(N2Cc3cnc(-c4cc(N)ccc4C)cc3C3(CC3)C2=O)c1F [Example 1, 6′-(5-amino-2-methylphenyl)-2′-(2,6-difluoro-3,5-dimethoxyphenyl)-1^1H-spiro[cyclopropane-1,4′-[2,7]naphthyridin]-3′(2′H)-one] | >25 | >25 | >50 |
